The values below come from BindingDB's records for doi:10.1021/jm00039a013 (Pfizer, 1994).

The experiment can be described thus: Inhibitory activity against acetylcholinesterase in mice at the dose of 4.8 mg/kg via intraperitoneal administration.

With `CCCCCCCNC(=O)Oc1ccc2c(c1)[C@]1(C)CCN(C)[C@@H]1N2C` [(3aS,8aR)-1,3a,8-trimethyl-1H,2H,3H,3aH,8H,8aH-pyrrolo[2,3-b]indol-5-yl N-heptylcarbamate], half-maximal inhibition (IC50) required 148 nM.
